TGI data for four molecules are collected here from PubChem BioAssay (NCI).

Some test systems named below: MCF7 breast; OVCAR-5 ovarian; HT29 colon; SK-MEL-5 melanoma; NCI-H522 lung; SK-MEL-2 melanoma; SNB-19 CNS; CAKI-1 renal; 786-0 renal; A498 renal; HOP-62 NSCLC.
What all share (assay): growth of human tumour cells (NCI), 48 h

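Results reflect a 48-hour exposure of cells in 96-well plates to compound at five concentrations. TGI is the concentration that stops growth completely.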 Where a SMILES comes first, the peptide text is derived from it. Bounds are passed on as bounds.

Consider `O=c1[nH]c(Nc2ccc(Cl)cc2)nc2nc[nH]c12`, for which the TGI with MCF7 breast, in the assay with OVCAR-5 ovarian, with HT29 colon, in the assay on SK-MEL-5 melanoma, with NCI-H522 lung and in the assay with SK-MEL-2 melanoma was more than 100 µM each time. In addition, the TGI in the assay on SNB-19 CNS, in the assay with CAKI-1 renal, in the assay with 786-0 renal, in the assay on A498 renal and in the assay on HOP-62 NSCLC was more than 100 µM throughout.

Take `CCCCCOC(=O)c1cc2cc(CCl)ccc2oc1=O`: the TGI is more than 56.9 µM with MCF7 breast; 31.6 µM in the assay with OVCAR-5 ovarian; 35.4 µM in the assay on HT29 colon; 13.4 µM in the assay with SK-MEL-5 melanoma; 1.3 µM with NCI-H522 lung; 2.08 µM in the assay on SK-MEL-2 melanoma. Also, the TGI with SNB-19 CNS is more than 76.8 µM; in the assay with CAKI-1 renal it was 6.3 µM; in the assay on 786-0 renal, 18.2 µM; in the assay on A498 renal it was 5.39 µM; in the assay on HOP-62 NSCLC, 32.9 µM.

`COC(=O)C[C@H](COCc1ccccc1)NC(=O)C[C@H](COCc1ccccc1)NC(=O)OC(C)(C)C`: the TGI was 51.1 µM in the assay with MCF7 breast; 99.8 µM in the assay on OVCAR-5 ovarian; more than 100 µM with HT29 colon; more than 100 µM in the assay with SK-MEL-5 melanoma; 54 µM in the assay on NCI-H522 lung; more than 100 µM in the assay on SK-MEL-2 melanoma. In addition, the TGI in the assay with SNB-19 CNS is 44.2 µM; with CAKI-1 renal, more than 100 µM; with 786-0 renal it was 40.8 µM; in the assay with A498 renal it was 61.9 µM; in the assay on HOP-62 NSCLC, 49.2 µM.

In the case of `CCC(C)C(NC(=O)C1CCCN1C(=O)C(CC(C)C)NC(=O)C(CC(C)C)NC(=O)C(N)CC(C)C)C(=O)NC(C(=O)NCC(=O)NC(CC(N)=O)C(=O)NC(CC(C)C)C(=O)NC(CC(C)C)C(=O)NC(CC(C)C)C(N)=O)C(C)C` (centres undefined) (H-LLLPIVGNLLL-NH2; configuration not given here), the TGI in the assay on MCF7 breast, in the assay on OVCAR-5 ovarian, in the assay with HT29 colon, in the assay on SK-MEL-5 melanoma, in the assay on NCI-H522 lung and in the assay with SK-MEL-2 melanoma was more than 50 µM in each case. In addition, the TGI in the assay on SNB-19 CNS, in the assay with CAKI-1 renal, with 786-0 renal, in the assay on A498 renal and in the assay on HOP-62 NSCLC was more than 50 µM each time.
